This note sets out measurements from patent US11793822B2, “Uses of Pulsatilla Chinensis extract in preparing drug for treating viral and/or bacterial diseases” (SICHUAN INLU WEITE PHARMACEUTICAL TECHNOLOGY CO., LTD., priority 2018, dated 2023).

On the set-up of series [1]: species or system dairy cows. Conditions: in vivo. The source says: In addition, during the treatment of dairy cow mastitis, randomly selected the tested Pulsatilla Saponin B4 injection and entrusted the Sichuan Provincial Veterinary Drug Inspection Institute to conduct more than 200 antibiotic tests, and no antibiotic component was detected. […] Pulsatilla Saponin B4 has little effect on the immunoglobulin and inflammatory factors in the cow milk, thus can ensure the stability of the milk composition. In addition, since there is no residue, it will not affect the quality of fresh milk in dairy farms.

The test system of series [2] is persistent clinical mastitis. Description: Treatment of persistent clinical mastitis (Test Example 3). Format: in vivo, cows. Conditions: 60 mL intramuscular injection once a day, after 3 administrations. As for the experimental part:
Pulsatilla Saponin B4 injection prepared by the preparation method of Example 3 at a concentration of 50 mg/mL;
The test selected 8 existing cows suffering from clinical mastitis in the dairy farm of Shijiazhuang Tianquan Dairy Cows Co., Ltd. These 8 cows have been treated for about a month but have not been cured (2 of them were close to dry, i.e., almost no milk was produced). These 8 cows have been treated by farm veterinarians, the treatment drugs and methods include udder infusing Cefquinome Sulfate Intramammary Infusion, intravenous injecting cephalosporins injection, and gavage with Gongying San ( ? ), etc.
To study the effect of Pulsatilla Saponin B4 injection on persistent clinical mastitis and the effect of Pulsatilla Saponin B4 injection on latent mastitis.
In the test, the Pulsatilla Saponin B4 injection prepared by the preparation method of Example 3 was used to treat 6 cows with persistent clinical mastitis and 2 cows with persistent clinical mastitis and close to dry. No matter how many udder areas were inflamed, intramuscular injection (60 mL) was taken once a day.

Consider `C=C(C)C1CC[C@]2(C(=O)O[C@@H]3O[C@H](CO[C@@H]4O[C@H](CO)[C@@H](O[C@@H]5O[C@@H](C)[C@H](O)[C@@H](O)[C@H]5O)[C@H](O)[C@H]4O)[C@@H](O)[C@H](O)C3O)CC[C@]3(C)[C@H](CC[C@@H]4[C@@]5(C)CC[C@H](O[C@@H]6OC[C@H](O)[C@H](O)[C@H]6O[C@@H]6O[C@@H](C)[C@H](O)[C@@H](O)[C@H]6O)C(C)(CO)[C@@H]5CC[C@]43C)[C@H]12` (stereo partly drawn) [Pulsatilla Saponin B4], for which, in series [1], the “Effect on the immunoglobulin and inflammatory factors in the cow milk” value is given as “little effect”. In series [2] (2 cows close to dry), the “Treatment result of cows with persistent clinical mastitis close to dry” value was “not effective”. In addition, the “Treatment result of cows with persistent clinical mastitis” value in series [2] (6 cows treated about a month but not cured) was “four cows were cured, one cow improved significantly, and one cow showed no significant effect”.
